# Reference: patent publication US20080274892A1, “Novel Haloalkylsulfonanilide Derivative, Herbicide, and Method of Use Thereof” (priority 2005, published 2008)
# Assays:
# [1] = system: transplanted paddy rice plant and Bulrush; assay: Test Example 5: selectivity between transplanted paddy rice plant and weeds; assay type: in vivo; conditions: (highest dosage with no phytotoxicity to paddy rice)/(lowest dosage with effective level 4 on Bulrush); rice 3000-100 g/ha, Bulrush 300-10 g/ha; 21 days
# Procedure, shortened: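 Transplanted paddy rice was treated at 3000, 1000, 300 and 100 g/ha active ingredient for phytotoxicity, and post-emergence bulrush at 300, 100, 30 and 10 g/ha. Plants were kept in a hothouse for 21 days. Growth inhibition versus untreated control was scored 0–4 (0%, 1–39%, 40–69%, 70–89%, 90–100%).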
# false pimpernel [2] = assay: Test Example 1: herbicidal efficacy on rice paddy weeds pre-emergence; assay type: in vivo, Lindernia pyxidaria; conditions: dosage 1000 g/ha, 21 days
# false pimpernel [3] = assay: Test Example 2: herbicidal efficacy on rice paddy weeds post-emergence; assay type: in vivo, Lindernia pyxidaria; conditions: dosage 1000 g/ha; post-emergence, one leaf stage; 21 days after treatment
# bulrush [4] = assay: as above; assay type: in vivo, Scirpus juncoides; conditions: dosage 1000 g/ha; post-emergence, one leaf stage; 21 days after treatment
# bulrush [5] = assay: Test Example 4: low dosage test for rice paddy weeds; assay type: in vivo, Scirpus juncoides; conditions: 300 g/ha as an active ingredient; plants treated at the one leaf stage; 21 days after treatment; vs untreated control
# Procedure, shortened: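 Bulrush sown in clay loam pots, flooded to 5 cm water in a hot house, treated at the one-leaf stage with formulated compound at 300 g/ha. Efficacy scored 0–4 against untreated control 21 days after treatment (4 = 90–100%, 0 = 0% inhibition).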
# [6] = system: paddy rice plant (cultivar: Nihonbare); assay: Test Example 3: phytotoxicity test for transplanted paddy rice plant; assay type: in vivo; conditions: dosage 1000 g/ha; transplanted rice, treated 5 days after transplantation; 21 days after treatment
# Procedure, shortened: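 Clay loam soil was placed in a 75 cm^2 plastic pot and flooded to a water depth of 5 cm. Two Nihonbare paddy rice plants at the two-leaf stage were transplanted 1 cm deep and grown in a hot house. After treatment, pots stayed in the hot house for 21 days, and phytotoxicity was then graded against an untreated control.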
# barnyard glass = assay: Test Example 2: herbicidal efficacy on rice paddy weeds post-emergence; assay type: in vivo, Echinochloa crus-galli; conditions: dosage 1000 g/ha; post-emergence, one leaf stage; 21 days after treatment
# Procedure, shortened: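 Plastic pots of 75 cm^2 were filled with clay loam soil and sown with barnyard glass and bulrush seeds, then topped with 75 cm^3 soil containing false pimpernel seeds. The pots were flooded to 5 cm water depth and held in a hot house. Twenty-one days after treatment, herbicidal efficacy was graded against an untreated control.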
# bulrush [7] = assay: Test Example 1: herbicidal efficacy on rice paddy weeds pre-emergence; assay type: in vivo, Scirpus juncoides; conditions: dosage 1000 g/ha, 21 days
SMILES,Selective Index [1],False pimpernel pre (herbicidal efficacy grade) (false pimpernel [2]),False pimpernel post (herbicidal efficacy grade) (false pimpernel [3]),Bulrush post (herbicidal efficacy grade) (bulrush [4]),Herbicide effect to Bulrush (bulrush [5]),Phytotoxicity to paddy rice [6],Burnyard grass post (herbicidal efficacy grade) (barnyard glass),melting point,Bulrush pre (herbicidal efficacy grade) (bulrush [7])
"CCC1COC(=O)N1Cc1ccccc1N(C(=O)OCC(C)C)S(=O)(=O)C(F)(F)F (stereo not drawn) [Compound No. 1-6, 4-ethyl-3-{2-[N-(isobutoxycarbonyl)-N-(trifluoromethanesulfonyl)amino]benzyl}-2-oxazolidinone]",3,4 (90%-100% of herbicidal efficacy or phytotoxicity),4 (90%-100% of herbicidal efficacy or phytotoxicity),4 (90%-100% of herbicidal efficacy or phytotoxicity),3 (70%-89% of herbicidal efficacy or phytotoxicity),1 (1%-39% of herbicidal efficacy or phytotoxicity),4 (90%-100% of herbicidal efficacy or phytotoxicity),69.3 to 71.7 °C,4 (90%-100% of herbicidal efficacy or phytotoxicity)
"CC1(C)COC(=O)N1Cc1ccccc1NS(=O)(=O)C(F)(F)F [Compound No. 1-15, 4,4-dimethyl-3-[2-(trifluoromethanesulfonylamino)benzyl]-2-oxazolidinone]",10,4 (90%-100% of herbicidal efficacy or phytotoxicity),4 (90%-100% of herbicidal efficacy or phytotoxicity),4 (90%-100% of herbicidal efficacy or phytotoxicity),4 (90%-100% of herbicidal efficacy or phytotoxicity),1 (1%-39% of herbicidal efficacy or phytotoxicity),4 (90%-100% of herbicidal efficacy or phytotoxicity),134.9 °C,4 (90%-100% of herbicidal efficacy or phytotoxicity)
"CC(C)COC(=O)N(c1ccccc1CN1C(=O)OCC1(C)C)S(=O)(=O)C(F)(F)F [Compound No. 1-16, 4,4-dimethyl-3-{2-[N-(isobutoxycarbonyl)-N-(trifluoromethanesulfonyl)amino]benzyl}-2-oxazolidinone]",33,4 (90%-100% of herbicidal efficacy or phytotoxicity),4 (90%-100% of herbicidal efficacy or phytotoxicity),4 (90%-100% of herbicidal efficacy or phytotoxicity),4 (90%-100% of herbicidal efficacy or phytotoxicity),0 (0% of herbicidal efficacy or phytotoxicity),4 (90%-100% of herbicidal efficacy or phytotoxicity),65 to 65.8 °C,4 (90%-100% of herbicidal efficacy or phytotoxicity)
"CC1CN(Cc2ccccc2NS(=O)(=O)C(F)(F)F)C(=S)O1 (stereo not drawn) [Compound No. 1-21, 5-methyl-3-[2-(trifluoromethanesulfonylamino)benzyl]-2-oxazolidinethione]",33,4 (90%-100% of herbicidal efficacy or phytotoxicity),3 (70%-89% of herbicidal efficacy or phytotoxicity),4 (90%-100% of herbicidal efficacy or phytotoxicity),4 (90%-100% of herbicidal efficacy or phytotoxicity),0 (0% of herbicidal efficacy or phytotoxicity),4 (90%-100% of herbicidal efficacy or phytotoxicity),74 to 76 °C,4 (90%-100% of herbicidal efficacy or phytotoxicity)
"CCC1CN(Cc2ccccc2N(C(=O)OCC(C)C)S(=O)(=O)C(F)(F)F)C(=O)O1 (stereo not drawn) [Compound No. 1-24, 5-ethyl-3-{2-[N-(isobutoxycarbonyl)-N-(trifluoromethanesulfonyl)amino]benzyl}-2-oxazolidinone]",33,4 (90%-100% of herbicidal efficacy or phytotoxicity),4 (90%-100% of herbicidal efficacy or phytotoxicity),4 (90%-100% of herbicidal efficacy or phytotoxicity),4 (90%-100% of herbicidal efficacy or phytotoxicity),0 (0% of herbicidal efficacy or phytotoxicity),4 (90%-100% of herbicidal efficacy or phytotoxicity),85 to 87 °C,4 (90%-100% of herbicidal efficacy or phytotoxicity)
"CC1(C)CN(Cc2ccccc2NS(=O)(=O)C(F)(F)F)C(=O)S1 [Compound No. 1-184, 5,5-dimethyl-3-[2-(trifluoromethanesulfonylamino)benzyl]thiazolidin-2-one]",10,4 (90%-100% of herbicidal efficacy or phytotoxicity),4 (90%-100% of herbicidal efficacy or phytotoxicity),4 (90%-100% of herbicidal efficacy or phytotoxicity),4 (90%-100% of herbicidal efficacy or phytotoxicity),1 (1%-39% of herbicidal efficacy or phytotoxicity),4 (90%-100% of herbicidal efficacy or phytotoxicity),115 to 117.5 °C,4 (90%-100% of herbicidal efficacy or phytotoxicity)
